What is called melting point is the temperature, or range, at which the solid turns liquid.

The compound `O=C(/C=C/c1ccc(O)cc1)CC(=O)/C=C/c1ccccc1Br` [CU486, (1E,6E)-1-(2-bromophenyl)-7-(4-hydroxyphenyl)hepta-1,6-diene-3,5-dione] showed a melting point of 155 to 159 °C.

The compound `CSc1ccc(/C=C/C(=O)CC(=O)/C=C/c2ccc(O)cc2)cc1` [CU235, (1E,6E)-1-(4-hydroxyphenyl)-7-(4-methylthiophenyl)hepta-1,6-diene-3,5-dione] registered a melting point of 169 to 171 °C.

`COc1cc(/C=C/C(=O)CC(=O)/C=C/c2cccc(O)c2)ccc1O` [CU079, (1E,6E)-1-(4-hydroxy-3-methoxyphenyl)-7-(3-hydroxyphenyl)hepta-1,6-diene-3,5-dione] registered a melting point of 74 to 80 °C.

As to `COc1cc(N(C)C)ccc1/C=C/C(=O)CC(=O)/C=C/c1ccc(N(C)C)cc1OC` [CU410, (1E,6E)-1,7-bis(4-dimethylamino-2-methoxyphenyl)hepta-1,6-diene-3,5-dione], the melting point lay in the range of 76 to 86 °C.

Consider `COc1cc(/C=C/C(=O)CC(=O)/C=C/c2ncc[nH]2)ccc1O` [CU152, (1E,6E)-1-(4-hydroxy-3-methoxyphenyl)-7-(1H-imidazol-2-yl)hepta-1,6-diene-3,5-dione], for which the melting point lay in the range of 235 to 240 °C.

For `O=C(/C=C/c1ccc(O)cc1)CC(=O)/C=C/c1ccccc1-c1cccnc1` [CU513, (1E,6E)-1-(4-hydroxyphenyl)-7-[2-(pyridin-3-yl)phenyl]hepta-1,6-diene-3,5-dione], the melting point was 180 to 189 °C.

`O=C(/C=C/c1ccc(O)cc1)CC(=O)/C=C/c1ccccc1N1CCN(CCO)CC1` [CU501, (1E,6E)-1-{2-[4-(2-hydroxyethyl)piperazin-1-yl]phenyl}-7-(4-hydroxyphenyl)hepta-1,6-diene-3,5-dione] registered a melting point of 102 to 110 °C.

`COc1cc(O)cc(/C=C/C(=O)CC(=O)/C=C/c2cc(O)cc(OC)c2)c1` [CU358, (1E,6E)-1,7-bis(3-hydroxy-5-methoxyphenyl)hepta-1,6-diene-3,5-dione] displayed a melting point of 147 to 151 °C.

Regarding `O=C(/C=C/c1ccc(O)cc1)CC(=O)/C=C/c1cc(O)ccc1-c1cccc2ccccc12` [CU538, (1E,6E)-1-[5-hydroxy-2-(naphthalen-1-yl)phenyl]-7-(4-hydroxyphenyl)hepta-1,6-diene-3,5-dione], the melting point was 215 to 221 °C.

As to `Cn1c(/C=C/C(=O)CC(=O)/C=C/c2cc3ccccc3n2C)cc2ccccc21` [CU409, (1E,6E)-1,7-bis(1-methyl-1H-indol-2-yl)hepta-1,6-diene-3,5-dione], the melting point was 189 to 196 °C.

On to `CCN(CC)c1ccc(/C=C/C(=O)CC(=O)/C=C/c2ccc(O)cc2)c(OCc2ccc(Cl)cc2Cl)c1` [CU451, (1E,6E)-1-[2-(2,4-dichlorobenzyloxy)-4-diethylaminophenyl]-7-(4-hydroxyphenyl)hepta-1,6-diene-3,5-dione], for which the melting point fell in the range of 73 to 80 °C.

For `O=C(/C=C/c1ccc(O)cc1)CC(=O)/C=C/c1cc(OCc2c(F)cccc2Cl)ccc1[N+](=O)[O-]` [CU492, (1E,6E)-1-[5-(2-chloro-6-fluorobenzyloxy)-2-nitrophenyl]-7-(4-hydroxyphenyl)hepta-1,6-diene-3,5-dione], the melting point lay in the range of 180 to 183 °C.

`O=C(/C=C/c1cc(O)ccc1-c1ccccc1)CC(=O)CCc1ccc(O)cc1` [CU541, (E)-1-(4-hydroxybiphenyl-2-yl)-7-(4-hydroxyphenyl)hept-1-ene-3,5-dione] showed a melting point of 148 to 158 °C.

Consider `COc1cc(/C=C/C(=O)CC(=O)/C=C/c2ccc(O)cc2)cc(OC)c1` [CU099, (1E,6E)-1-(3,5-dimethoxyphenyl)-7-(4-hydroxyphenyl)hepta-1,6-diene-3,5-dione], for which the melting point was in the range of 75 to 80 °C.

In turn, `COc1cc(/C=C/C(=O)CC(=O)/C=C/c2cc(Cl)cc(Cl)c2O)ccc1O` [CU021, (1E,6E)-1-(3,5-dichloro-2-hydroxyphenyl)-7-(4-hydroxy-3-methoxyphenyl)hepta-1,6-diene-3,5-dione] came in with a melting point of 185 to 188 °C.

On to `CCN(CC)c1ccc(/C=C/C(=O)CC(=O)/C=C/c2ccc(O)cc2)c(OC(=O)c2ccccc2)c1` [CU425, (1E,6E)-1-(2-benzoyloxy-4-diethylaminophenyl)-7-(4-hydroxyphenyl)hepta-1,6-diene-3,5-dione], for which the melting point lay within 212 to 215 °C.

Regarding `COc1ccc(/C=C/C(=O)CC(=O)/C=C/c2c(OC)ccc3ccccc23)cc1O` [CU117, (1E,6E)-1-(3-hydroxy-4-methoxyphenyl)-7-(2-methoxynaphthalen-1-yl)hepta-1,6-diene-3,5-dione], the melting point was in the range of 150 to 155 °C.

`O=C(/C=C/c1ccc(O)cc1)CC(=O)/C=C/c1coc2ccccc2c1=O` [CU407, (1E,6E)-1-(chromon-3-yl)-7-(4-hydroxyphenyl)hepta-1,6-diene-3,5-dione] showed a melting point of 227 to 231 °C.

Consider `O=C(/C=C/c1ccc(O)cc1)CC(=O)/C=C/c1ccc(O)c(Cl)c1` [CU042, (1E,6E)-1-(3-chloro-4-hydroxyphenyl)-7-(4-hydroxyphenyl)hepta-1,6-diene-3,5-dione], for which the melting point lay in the range of 184 to 190 °C.

The compound `COc1ccc(/C=C/C(=O)CC(=O)/C=C/c2ccc(N(C)C)cc2OC)cc1O` [CU155, (1E,6E)-1-(4-dimethylamino-2-methoxyphenyl)-7-(3-hydroxy-4-methoxyphenyl)hepta-1,6-diene-3,5-dione] gave a melting point of 108 to 113 °C.

Turning to `CC(C)(C)OC(=O)Nc1ccc(/C=C/C(=O)CC(=O)/C=C/c2ccc(O)cc2)cc1` [CU405, (1E,6E)-1-[4-(tert-butoxycarbonylamino)phenyl]-7-(4-hydroxyphenyl)hepta-1,6-diene-3,5-dione], the melting point is 181 to 184 °C.

Consider `CCN(CC)c1ccc(/C=C/C(=O)CC(=O)/C=C/c2ccc(O)cc2)c(OCc2ccc(C(C)(C)C)cc2)c1` [CU452, (1E,6E)-1-[2-(4-tert-butylbenzyloxy)-4-diethylaminophenyl]-7-(4-hydroxyphenyl)hepta-1,6-diene-3,5-dione], for which the melting point lay within 187 to 190 °C.

Compound `CN(C)c1ccc(Br)cc1/C=C/C(=O)CC(=O)/C=C/c1ccc(O)cc1` [CU534, (1E,6E)-1-(5-bromo-2-dimethylaminophenyl)-7-(4-hydroxyphenyl)hepta-1,6-diene-3,5-dione] had a melting point of 68 to 72 °C.

Turning to `COc1cc(/C=C/C(=O)CC(=O)/C=C/c2cccc(OC)c2OC)ccc1O` [CU070, (1E,6E)-1-(2,3-dimethoxyphenyl)-7-(4-hydroxy-3-methoxyphenyl)hepta-1,6-diene-3,5-dione], the melting point was 57 to 65 °C.

In turn, `O=C(/C=C/c1cccnc1N1CCOCC1)CC(=O)/C=C/c1cccnc1N1CCOCC1` [CU366, (1E,6E)-1,7-bis(2-morpholinopyridin-3-yl)hepta-1,6-diene-3,5-dione] registered a melting point of 192 to 195 °C.

Compound `O=C(/C=C/c1ccc(O)cc1)CC(=O)/C=C/c1cn(Cc2ccccc2)c2ccccc12` [CU331, (1E,6E)-1-(1-benzyl-1H-indol-3-yl)-7-(4-hydroxyphenyl)hepta-1,6-diene-3,5-dione] had a melting point of 243 to 249 °C.

In the case of `COCOc1c(O)cccc1/C=C/C(=O)CC(=O)/C=C/c1ccc(OC)c(O)c1` [CU248, (1E,6E)-1-[3-hydroxy-2-(methoxymethoxy)phenyl]-7-(3-hydroxy-4-methoxyphenyl)hepta-1,6-diene-3,5-dione], the melting point was in the range of 79 to 83 °C.

With `O=C(/C=C/c1ccc(O)cc1)CC(=O)/C=C/c1ccccc1CO` [CU424, (1E,6E)-1-(2-hydroxymethylphenyl)-7-(4-hydroxyphenyl)hepta-1,6-diene-3,5-dione], the melting point lay within 173 to 180 °C.

In turn, `O=C(/C=C/c1ccc(O)cc1)CC(=O)/C=C/c1ccc(O)cc1Cl` [CU127, (1E,6E)-1-(2-chloro-4-hydroxyphenyl)-7-(4-hydroxyphenyl)hepta-1,6-diene-3,5-dione] returned a melting point of 131 to 138 °C.

In turn, `O=C(/C=C/c1ccc(O)cc1)CC(=O)/C=C/c1ccc2ccn(Cc3ccccc3)c2c1` [CU400, (1E,6E)-1-(1-benzyl-1H-indol-6-yl)-7-(4-hydroxyphenyl)hepta-1,6-diene-3,5-dione] displayed a melting point of 164 to 170 °C.

As to `COc1cc(/C=C/C(=O)CC(=O)/C=C/c2cccc(OC)c2O)ccc1O` [CU250, (1E,6E)-1-(2-hydroxy-3-methoxyphenyl)-7-(4-hydroxy-3-methoxyphenyl)hepta-1,6-diene-3,5-dione], the melting point was 156 to 158 °C.

`O=C(/C=C/c1ccc2[nH]ccc2c1)CC(=O)/C=C/c1ccc2[nH]ccc2c1` [CU382, (1E,6E)-1,7-bis(1H-indol-5-yl)hepta-1,6-diene-3,5-dione]: the melting point fell in the range of 263 to 266 °C.

Compound `CC(C)(C)OC(=O)N[C@@H](Cc1ccccc1)C(=O)Nc1ccc(/C=C/C(=O)CC(=O)/C=C/c2ccc(O)cc2)cc1` [CU396, (1E,6E)-1-(4-hydroxyphenyl)-7-[4-((S)-2-tert-butoxycarbonylamino-3-phenylpropionylamino)phenyl]hepta-1,6-diene-3,5-dione] came in with a melting point of 116 to 121 °C.

In turn, `COc1ccc(OC)c(/C=C/C(=O)CC(=O)/C=C/c2ccc(O)cc2)c1` [CU075, (1E,6E)-1-(2,5-dimethoxyphenyl)-7-(4-hydroxyphenyl)hepta-1,6-diene-3,5-dione] registered a melting point of 70 to 74 °C.

With `O=C(/C=C/c1cc(O)ccc1-c1cccc2ccccc12)CC(=O)CCc1ccc(O)cc1` [CU542, (E)-1-[5-hydroxy-2-(naphthalen-1-yl)phenyl]-7-(4-hydroxyphenyl)hept-1-ene-3,5-dione], the melting point is 138 to 142 °C.

As for `COc1ccc(/C=C/C(=O)CC(=O)/C=C/c2cccc(Oc3ccccc3)c2)cc1O` [CU220, (1E,6E)-1-(3-hydroxy-4-methoxyphenyl)-7-(3-phenoxyphenyl)hepta-1,6-diene-3,5-dione], the melting point was 148 to 150 °C.

Compound `COc1ccc(/C=C/C(=O)CC(=O)/C=C/c2cc(Cl)cc(Cl)c2)cc1O` [CU141, (1E,6E)-1-(3,5-dichlorophenyl)-7-(3-hydroxy-4-methoxyphenyl)hepta-1,6-diene-3,5-dione] showed a melting point of 176 to 183 °C.

The record behind these values is patent US8962674B2 (Tokyo Institute of Technology, priority 2006, dated 2015).
